The subject of series [1] is A549 cells.
Description: (§3) In addition, a cell viability (%) was calculated using a CellTiter-Glo assay system (commercially available from Promega Corporation) according to the appended instructions. The number of cells cultured in a medium containing the inhibitors with respect to the number of living cells in cells cultured in a medium containing the control (the DMSO solution) was calculated as the cell viability (%).
The subject of series [2] is influenza virus. Type of series: cell-based.
For series [3], the system named is HEK293 cells or A549 cells. In words: Cell viability with inhibitors (CellTiter-Glo, Example 2), cell line not specified. It is filed as cell-based, human. Conditions: for cell viability: 48 hours. A general note: In ATP-based viability assays light output follows the ATP content of the culture.
Description: Specifically, HEK293 cells or A549 cells were infected with an influenza virus with an MOI of 0.001. Cells 1 hour after the infection were washed and then cultured in a culture solution containing inhibitors, a DMSO solution (final concentration: 1 volume %) was used as a control instead of the inhibitors. […] In addition, a cell viability (%) was calculated using a CellTiter-Glo assay system (commercially available from Promega Corporation) according to the appended instructions. The number of cells cultured in a medium containing the inhibitors with respect to the number of living cells in cells cultured in a medium containing the control (the DMSO solution) was calculated as the cell viability (%).
Series [4] can be described thus: Cytotoxicity test (Cell Counting Kit-8), HEK293. Type of series: cell-based, human. Conditions: human, 293 (HEK293) cells, read-out: CC50 (50% cytotoxicity concentration) (converted). As for the experimental part:
(§1) First, as test compound solutions, test compounds were prepared in 1% dimethylsulfoxide-containing MEMs so that a final concentration was 1000, 100, 10, 1, 0.1, 0.01, or 0.001 μM.
(§2) Cell fluids in which MDCK cells, A549 cells, and HEK293 cells were prepared at concentrations of 6.25×10^5 cells/mL, 2.5×10^6 cells/mL, and 1.25×10^5 cells/mL in minimum essential mediums (MEMs) were added to a 96-well plate at 0.1 ml/well and the cells were seeded. The cells in the 96-well plate were cultured in a carbon dioxide incubator at 37° C. and washed with MEM the day after the seeding date. In the washed cells in the 96-well plate, 0.1 mL of each test compound solution was added to three wells for each concentration and the cells in the 96-well plate were then cultured in a carbon dioxide incubator at 37° C. for 48 hours. After the culture, a Cell Counting Kit-8 solution (commercially available from Dojindo Molecular Technologies, Inc.) was added to each well at 10 μL and culture was additionally performed at 37° C. for several hours. After the culture, an absorbance at 450 nm of a solution of each well in the 96-well plate was measured using a microplate reader. An absorbance value when a solvent (1% dimethylsulfoxide-containing MEM) was added in place of the test compound was set to 100% at which the whole cells survived. A final concentration value of the test compound when an absorbance was 50% was calculated as a 50% cytotoxicity concentration (CC50 value).

Series [5] is described as follows: Cytotoxicity test (Cell Counting Kit-8), A549. Conditions: human, A549 cells, read-out: CC50 (50% cytotoxicity concentration) (converted). Type of series: cell-based. Background: Tetrazolium assays rely on reduction of a dye to a coloured formazan, in cell work by metabolically active cells.
The test system of series [6] is HEK293 cells. The series can be described thus: Cytotoxicity test (Cell Counting Kit-8), HEK293. Type of series: cell-based, human. The settings on record: 293 (HEK293) cells, 48 hours. As for the experimental part: as §1, §2
The test system of series [7] is A549 cells. The series can be described thus: Cell viability with inhibitors (CellTiter-Glo, Example 2), A549. Conditions: 0.2 μM.
Description: as §3
The target of series [8] is T1, adenine nucleotide transporter (ANT) (Homo sapiens, UniProt P05141).
T1 sequence (P05141 1-298): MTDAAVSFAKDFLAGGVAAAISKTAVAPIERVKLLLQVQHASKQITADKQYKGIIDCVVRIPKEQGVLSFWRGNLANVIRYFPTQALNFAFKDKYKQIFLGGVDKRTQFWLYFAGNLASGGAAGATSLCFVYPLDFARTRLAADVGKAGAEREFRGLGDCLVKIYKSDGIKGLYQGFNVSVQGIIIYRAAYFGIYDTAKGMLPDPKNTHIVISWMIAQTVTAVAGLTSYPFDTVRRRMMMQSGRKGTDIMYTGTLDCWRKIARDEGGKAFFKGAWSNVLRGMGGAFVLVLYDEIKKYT
The settings on record: cited from earlier work.

The nature of series [9]: Cytotoxicity test (Cell Counting Kit-8), MDCK. Conditions: dog, MDCK cells, read-out: CC50 (50% cytotoxicity concentration) (converted). Type of series: cell-based, canine. As for the experimental part: as §1
as §2, with “A final concentration value of the test compound when an absorbance was 50% was calculated as a 50% cytotoxicity concentration (CC50 value).” left out

The structures appear in SMILES notation. Where a name gives a salt, the structure may show the parent alone. Read-outs that look alike come from different tables or passages of the source.

Broadly, the Ki is the dissociation constant of the complex between target and ligand, obtained from inhibition or displacement.

With `COc1cc2c(c(OC)c1OC)-c1ccc(OC)c(=O)cc1[C@@H](NC(C)=O)CC2` [Colchicine], the cytotoxicity entry in series [1] is “without showing severe cytotoxicity”. In [2], the “virus titer reduced by a common logarithmic value” is 2 common logarithmic value.
Take `CC(=O)C(C)=NO` [2,3-Butanedione 2-Monoxime]: the cell viability result in [3] (30 mM) is given as “significantly reduced”. The anti-influenza virus effect result in series [2] is “had an anti-influenza virus effect”.
As to `N#CCNC(=O)c1ccc(-c2ccnc(Nc3ccc(N4CCOCC4)cc3)n2)cc1` [Compound J8, N-(cyanomethyl)-4-(2-(4-morpholinophenylamino)pyrimidin-4-yl)benzamide], the CC50 at 48 h in series [4] (HEK293 cells) was greater than 316 µM.
In the case of `CC(C)N(CCC(=O)c1ccc2ccccc2c1)Cc1ccccc1` [Compound J15, 1-propanone, 3-[(1-methylethyl)(phenylmethyl)amino]-1-(2-naphthalenyl)-, hydrochloride (1:1)], in series [4] (HEK293 cells), the CC50 at 48 h was 47.9 µM.
As for `O=C(Nc1c[nH]nc1-c1nc2cc(CN3CCOCC3)ccc2[nH]1)NC1CC1` [Compound J7, 1-cyclopropyl-3-(3-(5-(morpholinomethyl)-1H-benzo[d]imidazol-2-yl)-1H-pyrazol-4-yl) urea], in [5], the CC50 at 48 h was greater than 316 µM.
Turning to `Fc1cc(-c2cccc3ncc(-c4cnn(C5CCNCC5)c4)nc23)cc(F)c1CN1CCOCC1` [Compound J13, 8-(3,5-difluoro-4-(morpholinomethyl)phenyl)-2-(1-(piperidin-4-yl)-1H-pyrazol-4-yl)qui noxaline], in series [4] (HEK293 cells), the CC50 at 48 h is 20.9 µM.
As for `CN1CCN(c2cccc(Nc3nc4c(-c5ccc(S(C)(=O)=O)cc5)cccn4n3)c2)CC1` [Compound J11], the “CC50 (50% cytotoxicity concentration)” value in series [6] is >5.5 log10, nM.
Take `Cl.Cl.Fc1cc(-c2cccc3ncc(-c4cnn(C5CCNCC5)c4)nc23)cc(F)c1CN1CCOCC1` [Compound J21, 4-[[2,6-difluoro-4-[3-(1-piperidin-4-ylpyrazol-4-yl)quinoxalin-5-yl]phenyl]methyl]morpholine; dihydrochloride]: the CC50 at 48 h in [4] is 38.9 µM.
Turning to `Fc1cc(F)c2c(c1)C1C=CCC1C(c1cccnc1)N2` (centres unmarked) [Golgicide A], the “toxicity to host cells” value in [3] (summary of Example 2) was “relatively low toxicity to host cells”. Moreover, in series [2], the anti-influenza virus effect entry was “had an anti-influenza virus effect” and the “effect on virus titer” value is “significantly reduced a virus titer”.
`CCC[C@H](NC(=O)/C(C#N)=C/c1cccc(Br)n1)c1ccccc1` [Compound J25, (2E)-3-(6-bromo-2-pyridinyl)-2-cyano-N-[1S-phenylbutyl]-2-propenamide]: the cell viability result in series [3] (50 μM) is “significantly reduced”. The anti-influenza virus effect entry in [2] is given as “had an anti-influenza virus effect”. Further, in series [6], the “CC50 (50% cytotoxicity concentration)” value was 3.69 log10, nM.
Regarding `CC(C)C[C@H](NC(=O)[C@H](Cc1ccccc1)NC(=O)c1cnccn1)B(O)O` [Bortezomib], in [7], the cytotoxicity entry is “without showing severe cytotoxicity”. Moreover, the “virus titer reduced by a common logarithmic value” in series [2] (0.2 μM, A549 cells, MOI 0.001, 48 hours) was determined as 4 common logarithmic value.
For `O=C1/C(=C/c2ccc(O)c(Br)c2)CCC/C1=C\c1ccc(O)c(Br)c1` [Histone acetyltransferase inhibitor II], in series [2], the anti-influenza virus effect result was “had an anti-influenza virus effect”.
Consider `COc1cc2ncnc(Nc3ccc(O)cc3)c2cc1OC` [Compound J20, 4-[(6,7-dimethoxy-4-quinazolinyl)amino]-phenol], for which, in series [4] (HEK293 cells), the CC50 at 48 h is greater than 316 µM.
On to `C=C1[C@@H]2CC[C@H]3[C@]4(C)C[C@H](O[C@@H]5O[C@H](CO)[C@@H](OS(=O)(=O)O)[C@H](OS(=O)(=O)O)[C@H]5OC(=O)CC(C)C)CC(C(=O)O)(C(=O)O)[C@H]4CC[C@]3(C2)[C@H]1O` [Carboxyatractyloside], for which, in series [8], the Ki is less than 0.01 µM.
As for `CN1C/C=C/CCOc2cccc(c2)-c2ccnc(n2)Nc2cccc(c2)C1` [Compound J23, 20-oxa-5,7,14,27-tetraazatetracyclo[19.3.1.12,6.18, 12]heptacosa-1(25),2,4,6(27),8,10,12(26),16,21,23-decane,14-methyl-], the figures for the CC50 at 48 h in [9], in [5] and in series [4] (HEK293 cells) were 7.94 µM, 35.5 µM and 52.5 µM, respectively.
`N#C/C(=C\c1ccc(O)c(O)c1)C(=O)NCc1ccccc1` [Compound J4, (E)-N-benzyl-2-cyano-3-(3,4-dihydroxyphenyl)acrylamide]: the CC50 at 48 h in [5] was 2690 µM.
For `O=C(Nc1nc2cccc(-c3ccc(CN4CCS(=O)(=O)CC4)cc3)n2n1)C1CC1` [Compound J19, N-[5-[4-[(1,1-dioxido-4-thiomorpholinyl)methyl]phenyl][1,2,4]triazolo[1,5-a]pyridin-2-yl]cyclopropanccarboxamidc], the CC50 at 48 h in series [9], in series [5] and in series [4] (HEK293 cells) was greater than 316 µM each time.
`O=c1c(-c2ccc(O)cc2)coc2cc(O)cc(O)c12` [Genistein]: the anti-influenza virus effect entry in series [2] is recorded as “had an anti-influenza virus effect”.

(Values after patent publication US20170290821A1 (priority 2014, published 2017).)
